Experimental data published in paper PMC8043168, “Tribolium castaneum defensin 1 kills Moraxella catarrhalisin an in vitro infection model but does not harm commensal bacteria” (Virulence, 2021).
Bridge positions count the residues as written; N and C are the ends.

Key:
[1] = system: BDMs infected with M. catarrhalis; assay: Multiplex ELISA of cytokines in BDM supernatant after infection; assay type: cell-based, human; conditions: defensin 1 12.5 µM, 1 or 5 h post-infection, MOI 0.5 or 1
Protocol: The presence of cytokines in the BDM supernatant after infection and treatment with 12.5 µM defensin 1 was assessed using the MAGPIX Multiplex ELISA (Luminex, Austin, TX, USA). BDM supernatants were prepared as recommended for the MAGPIX system. The cytokine panel comprised MIP1-α, MCP1, IL-1β, IL-6, IL-8, IL-10, IL-12p70, IL-23, LAP and TNF-α.
Statistical interpretation of the multiplex ELISA data required the incorporation of data points outside the detection range and adjustments for the effect of parallel technical measurements from the same biological samples. We therefore used the Hodges and Lehmann nonparametric aligned ranks test to compare cytokine secretion by treatment time within treatment groups and between the following control and treatment groups: […]

M. catarrhalis = assay: AMP inhibitory testing without macrophages, dilution and plating (Figure S1); assay type: cell-based, Moraxella catarrhalis
Protocol: Colonies of M. catarrhalis were grown on sheep blood agar plates for 12 h at 37°C and 5% CO2 before transfer to brain heart infusion (BHI) medium (Carl Roth, Karlsruhe, Germany) at an initial concentration of 1.6 × 10^7 cells/ml (OD600 = 0.08) as determined using an Ultraspec 10 cell densitometer (Amersham BioSciences, Little Chalfont, UK). Bacteria were cultivated in a shaking incubator at 37°C until the concentration reached 1.2 × 10^8 cells/ml (OD600 = 0.6) and then diluted to 2 × 10^6 cells/ml (OD600 = 0.011). To establish the optimal concentration ranges for AMP activity, defensin 1 was prepared as a two-fold dilution series from 12.5 µM to 1.56 µM and was added to the bacterial cultures, which were incubated as above for a further 16 h. Untreated cultures were used as controls. The OD600 was measured automatically at 30-min intervals using an Infinite M200 Pro plate reader (Tecan Life Sciences, Männedorf, Switzerland). […] They were cultivated for a further 15 h at 37°C and 5% CO2 in serial dilution before manual counting of the colonies on each plate.

Streptococcus pneumoniae = conditions: cited from earlier work
Source text: Among the 23 AMPs we tested, only defensin 1 was previously found to be effective against the Gram-positive pathogen Streptococcus pneumoniae. It is unclear whether the eﬃcacy of defensin 1 indeed lies in the structure of the peptide and whether other AMPs with different structures would also show activity against M. catarrhalis. We therefore also investigated L. sericata sarcotoxin 1 C, which has a linear α-helical structure without disulfide bridges.

[2] = system: commensal species (E. faecalis and E. coli); conditions: previous study; cited from earlier work
Source text: We furthermore tested the effect of defensin 1 and sarcotoxin 1 C on the commensals E. faecalis and E. coli. Selectivity of AMPs may provide an important therapeutic advantage over broad-spectrum antibiotics because AMPs targeting pathogens but not commensals would avoid the common side effects of antibiotic therapy. […] Sarcotoxin 1 C was previously shown to inhibit 90% of clinical multidrug-resistant isolates of Ent ...

E. coli = assay: Growth kinetics of commensal E. coli; assay type: cell-based, Escherichia coli; conditions: liquid LB medium, 37°C, OD600 every 30 min; defensin 1 12.5 µM, sarcotoxin 1 C 0.39 µM
Protocol: (§1) For the analysis of commensal bacteria, E. faecalis was grown on Columbia agar plates or in liquid BHI medium, and E. coli was grown on McConkey agar or in liquid LB medium. After overnight culture on agar plates at 37°C and 5% CO2, both species were transferred to liquid medium at an initial OD600 of 0.005. The cultures were maintained in a shaking incubator at 37°C, and the OD600 was measured automatically at 30-min intervals as above.

E. faecalis = assay: Growth kinetics of commensal E. faecalis; assay type: cell-based, Enterococcus faecalis; conditions: liquid BHI medium, 37°C, OD600 every 30 min; defensin 1 12.5 µM, sarcotoxin 1 C 0.39 µM
Protocol: as §1

[3] = system: M. catarrhalis in human blood-derived macrophages (BDMs); assay: Colony forming unit assay in blood-derived macrophages infected with M. catarrhalis; assay type: cell-based, Moraxella catarrhalis; conditions: MOI 0.5 or 1; defensin 1 12.5 µM or sarcotoxin 1 C 0.39 µM added 1 or 5 h post-infection; further 16 h; lysis with 1% saponin, plating; vs assays without peptide
Protocol: The absolute number of bacterial cells after treatment with defensin 1 or sarcotoxin 1 C was determined by counting the colony forming units (CFUs). M. catarrhalis overnight cultures prepared as described above were grown to the mid-exponential phase (~5 x 10^8 cells/ml) in BHI medium before dilution to 2 × 10^7 cells/ml in PBS containing 0.15% gelatin, and blood-derived macrophages (BDMs) were infected with a multiplicity of infection (MOI) of 0.5 or 1. […] Cells were then incubated for an additional 16 h at 37°C and 5% CO2 and then lysed with 1% saponin. Lysates were plated on sheep blood agar and cultivated for a further 15 h at 37°C and 5% CO2 before manual counting of the colonies on each plate.
All donors gave informed written consent (Ethics approval number: 161/17). Human BDMs were cultured as previously described. Briefly, primary human monocytes were isolated from donor buffy coats by selection for CD14^+ cells using CD14 Microbeads (Miltenyi Biotec, Bergisch Gladbach, Germany). Monocytes were grown in RPMI1640 medium with 1% human AB serum at 37°C and 5% CO2 on ultra-low attachment plates (Sigma-Aldrich, Munich, Germany). After 6 days, differentiated macrophages were detached, seeded at the desired density and incubated for 24 h before further analysis.

## H-VTCDLLSAEAKGVKVNHAACAAHCLLKRKRGGYCNKRRICVCRN-OH (disulfide 3-34, 20-40, 24-42 (inferred)) [Defensin 1]
[1]
  bacteria-induced secretion of IL-1β: inhibited
  bacteria-induced secretion of IL-10: inhibited
  bacteria-induced secretion of IL-12p70: inhibited
  bacteria-induced secretion of IL-23: inhibited
M. catarrhalis; defensin 1 12.5 µM or sarcotoxin 1 C 0.39 µM in BHI, diluted in PBS with 0.15% gelatin, plated on sheep blood agar, 15 h, Figure S1
  effect on bacterial growth upon dilution of the AMP by plating: efficiently killed the bacteria
M. catarrhalis; growth of M. catarrhalis after dilution of the AMP
  bactericidal or bacteriostatic capacity: bactericidal
Streptococcus pneumoniae
  effective against Streptococcus pneumoniae: effective
[2]
  effect against commensal species (E. faecalis, E. coli): no effect
E. coli
  effect on growth of E. coli: minor growth delay
E. faecalis
  effect on growth of E. faecalis: minor growth delay
[3]
  M. catarrhalis CFU count (bacterial burden) in infection assay of primary BDMs: reduced the bacterial burden
